According to patent publication US10473645B2, “Methods for identifying a receptor for a ligand and uses thereof” (UNIVERSITE DE GENEVE, priority 2014, dated 2019):

What was measured:
Assay in all cases: OR transcript level by RT-qPCR after in vivo odorant exposure
Conditions in all cases: 5% acetophenone exposure
olfr143 = molecular target: T1, olfr143 (Mus musculus, UniProt P34985); design: key: The transcript downregulation of 21 out of the 26 olfactory receptor candidates obtained by RNAseq was confirmed by qPCR; false RNAseq positive candidates, namely OR candidates for which in fact mRNA was not downregulated following acetophenone exposure
T1 construct: from tissue; host or cells: main olfactory epithelium of living mice
T1 sequence (P34985 whole entry): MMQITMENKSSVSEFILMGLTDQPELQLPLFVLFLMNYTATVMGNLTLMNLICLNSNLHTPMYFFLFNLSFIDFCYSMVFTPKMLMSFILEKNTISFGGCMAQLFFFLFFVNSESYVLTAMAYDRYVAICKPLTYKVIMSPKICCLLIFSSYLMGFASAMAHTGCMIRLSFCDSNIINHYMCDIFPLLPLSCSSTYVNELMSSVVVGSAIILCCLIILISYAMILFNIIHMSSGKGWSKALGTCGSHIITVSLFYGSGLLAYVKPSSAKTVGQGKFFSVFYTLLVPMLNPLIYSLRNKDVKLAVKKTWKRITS
Description: (§1) In vivo exposure to odorant: Starting 48 h before experiments, mice were habituated to pure DMSO on a cotton ball. 200 μl were pipetted directly onto the cotton and placed in the cage, replacing any cotton that was already in the cage for nest-making purposes.
(§2) On the day of the experiment, mice receiving odorants were transferred to a different room, where they were exposed to a cotton ball on which 200 μl of odorant diluted in pure DMSO were deposited. Exposures started in the morning between 8 and 10 am (that is two hours after lights were on) and mice were killed and dissected between 1 and 3 pm. […] If a number of different odorants were tested in the same experiment, a different overpressurized room would always be used for each odorant to avoid odor cross-contamination.
(§3) After odorant exposure, mice were killed by cervical dislocation and immediately decapitated. The main olfactory epithelia (MOE), were harvested in their entirety and transferred to a tube containing 600 μl of lysis buffer and β-mercaptoethanol (RNAeasy kit, Qiagen, following the manufacturer protocol) and a 0.5 cm diameter steel ball, and then put on ice. Samples were then homogenized using a FastPrep®-24 instrument (MP Biomedicals) at 6 m/s for 30 s and left on ice. RNA extraction was performed on all samples in parallel using the Qiagen RNeasy Mini® kit following the manufacturer's instructions. Two DNase treatments were performed on all samples: first using the Qiagen RNase-Free DNase Set® and then using the Life Technologies Ambion DNase I® kit. RNA samples were then aliquoted and stored at −80° C.
(§4) RNA concentrations were determined using an Amersham Ultrospec® 3100 Pro spectrophotometer, and RNA quality was evaluated with an Agilent Technologies 2100 Bioanalyzer®. Each reverse transcription was performed with 0.5 μg RNA using the Takara Primescript® kit, in a final volume of 10 μl. Primers for reverse transcription were equal mixtures of poly-T nucleotides and random hexamers. Negative controls (omitting the reverse transcriptase enzyme) were performed for each sample. 1/14th of the cDNA preparation was used for each triplicated qPCR reaction.
(§5) qPCR Ct values were analyzed using an in-house developed Microsoft Excel® macro file. Triplicate values were compared and outliers (values with a difference higher than 0.5 Ct to their nearest neighbor) were discarded. The number of conditions with an outlying value was always less than 10% of the total number of conditions. Ct values were converted to quantities relative to the maximum for each given gene. Selected reference genes were then analyzed for variance using the geNorm algorithm. All values were normalized with the olfactory tissue-specific genes Omp and Adcy3. β-Actin was used as a non-tissue-specific reference gene to control for differences in dissection between samples.
(§6) Mice (n=6) were exposed to 5% acetophenone or to a “neutral” control condition for 5 hours. An olfactory cDNA library corresponding to each animal was deep sequenced and the ratios of odorant receptor mRNA concentrations relative to controls were plotted (FIG. 3). […] Based on transcriptional downregulation levels observed by RNAseq following acetophenone exposure, a list of 26 candidate responsive ORs was determined (FIG. 3), that reached 74% decrease (Olfr145) or even over 80% (Olfr169) relative to controls. […] The transcript downregulation of 21 out of the 26 olfactory receptor candidates obtained by RNAseq was confirmed by qPCR.

olfr490 = molecular target: T2, olfr490 (Mus musculus, UniProt Q8VFD2); design: key: The transcript downregulation of 21 out of the 26 olfactory receptor candidates obtained by RNAseq was confirmed by qPCR; false RNAseq positive candidates, namely OR candidates for which in fact mRNA was not downregulated following acetophenone exposure
T2 construct: from tissue; host or cells: main olfactory epithelium of living C57BL/6 mice
T2 sequence (Q8VFD2 whole entry): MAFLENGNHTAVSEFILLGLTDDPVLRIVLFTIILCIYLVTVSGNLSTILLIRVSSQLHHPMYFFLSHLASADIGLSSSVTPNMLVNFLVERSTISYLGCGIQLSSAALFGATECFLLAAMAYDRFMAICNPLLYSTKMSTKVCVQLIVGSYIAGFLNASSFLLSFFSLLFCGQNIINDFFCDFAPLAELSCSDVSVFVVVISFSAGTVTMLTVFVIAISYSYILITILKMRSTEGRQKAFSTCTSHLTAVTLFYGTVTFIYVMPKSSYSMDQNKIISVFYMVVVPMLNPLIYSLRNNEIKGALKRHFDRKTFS
Description: as §1, §2, §3, §4, §5, §6

olfr478 = molecular target: T3, olfr478 (Mus musculus, UniProt Q8VG04); design: key: The transcript downregulation of 21 out of the 26 olfactory receptor candidates obtained by RNAseq was confirmed by qPCR; false RNAseq positive candidates, namely OR candidates for which in fact mRNA was not downregulated following acetophenone exposure
T3 construct: from tissue; host or cells: main olfactory epithelium of living mice
T3 sequence (Q8VG04 whole entry): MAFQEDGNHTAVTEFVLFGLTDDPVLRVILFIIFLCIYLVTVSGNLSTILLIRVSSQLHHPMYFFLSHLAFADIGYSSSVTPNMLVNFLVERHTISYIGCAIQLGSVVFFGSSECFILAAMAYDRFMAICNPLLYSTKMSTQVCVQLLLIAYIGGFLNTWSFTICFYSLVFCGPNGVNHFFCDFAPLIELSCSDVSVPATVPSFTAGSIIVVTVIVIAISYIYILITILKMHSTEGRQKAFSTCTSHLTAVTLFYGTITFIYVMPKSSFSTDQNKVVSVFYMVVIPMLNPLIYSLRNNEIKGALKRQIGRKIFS
Description: as §1, §2, §3, §4, §5, §6

olfr145 = molecular target: T4, olfr145 (Mus musculus, UniProt Q60882); design: key: The transcript downregulation of 21 out of the 26 olfactory receptor candidates obtained by RNAseq was confirmed by qPCR; false RNAseq positive candidates, namely OR candidates for which in fact mRNA was not downregulated following acetophenone exposure
T4 construct: from tissue; host or cells: main olfactory epithelium of living mice
T4 sequence (Q60882 whole entry): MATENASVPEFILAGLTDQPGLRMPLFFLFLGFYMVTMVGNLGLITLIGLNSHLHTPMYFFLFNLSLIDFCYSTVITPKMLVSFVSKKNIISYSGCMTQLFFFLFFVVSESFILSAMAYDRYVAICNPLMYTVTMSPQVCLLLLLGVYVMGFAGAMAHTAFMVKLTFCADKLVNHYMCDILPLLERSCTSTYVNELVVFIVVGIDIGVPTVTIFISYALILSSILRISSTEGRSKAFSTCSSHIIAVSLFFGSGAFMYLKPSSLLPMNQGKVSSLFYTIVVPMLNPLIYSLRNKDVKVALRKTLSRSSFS
Description: as §1, §2, §3, §4, §5, §6

olfr19 = molecular target: T5, olfr19 (Mus musculus, UniProt Q9JHB2); design: key: The transcript downregulation of 21 out of the 26 olfactory receptor candidates obtained by RNAseq was confirmed by qPCR; false RNAseq positive candidates, namely OR candidates for which in fact mRNA was not downregulated following acetophenone exposure
T5 construct: from tissue; host or cells: main olfactory epithelium of living mice
T5 sequence (Q9JHB2 whole entry): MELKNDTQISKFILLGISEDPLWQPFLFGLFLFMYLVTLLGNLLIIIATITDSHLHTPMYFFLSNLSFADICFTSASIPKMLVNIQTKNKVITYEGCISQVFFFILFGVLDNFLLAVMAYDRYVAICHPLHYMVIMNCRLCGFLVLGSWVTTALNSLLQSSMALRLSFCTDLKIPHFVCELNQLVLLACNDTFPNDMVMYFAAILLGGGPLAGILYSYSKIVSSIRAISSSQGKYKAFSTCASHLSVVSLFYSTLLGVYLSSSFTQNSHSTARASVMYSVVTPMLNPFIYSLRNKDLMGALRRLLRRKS
Description: as §1, §2, §3, §4, §5, §6

olfr476 = molecular target: T6, olfr476 (Mus musculus, UniProt Q8VGI4); design: key: The transcript downregulation of 21 out of the 26 olfactory receptor candidates obtained by RNAseq was confirmed by qPCR; false RNAseq positive candidates, namely OR candidates for which in fact mRNA was not downregulated following acetophenone exposure
T6 construct: from tissue; host or cells: main olfactory epithelium of living mice
T6 sequence (Q8VGI4 whole entry): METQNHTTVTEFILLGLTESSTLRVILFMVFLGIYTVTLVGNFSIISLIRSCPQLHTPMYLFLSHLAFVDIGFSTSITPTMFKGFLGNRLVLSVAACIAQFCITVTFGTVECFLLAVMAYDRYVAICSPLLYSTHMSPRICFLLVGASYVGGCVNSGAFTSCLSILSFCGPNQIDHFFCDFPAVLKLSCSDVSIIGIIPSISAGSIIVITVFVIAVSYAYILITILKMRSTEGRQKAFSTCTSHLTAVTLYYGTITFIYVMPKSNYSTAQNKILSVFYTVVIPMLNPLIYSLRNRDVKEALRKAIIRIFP
Description: as §1, §2, §3, §4, §5, §6

olfr30 = system: olfr30; design: species or system mouse; key: The transcript downregulation of 21 out of the 26 olfactory receptor candidates obtained by RNAseq was confirmed by qPCR; false RNAseq positive candidates, namely OR candidates for which in fact mRNA was not downregulated following acetophenone exposure
Description: as §1, §2, §3, §4, §5, §6

olfr935 = system: olfr935; design: species or system mouse; key: The transcript downregulation of 21 out of the 26 olfactory receptor candidates obtained by RNAseq was confirmed by qPCR; false RNAseq positive candidates, namely OR candidates for which in fact mRNA was not downregulated following acetophenone exposure
Description: as §1, §2, §3, §4, §5, §6

olfr47 = system: olfr47; design: species or system mouse; key: The transcript downregulation of 21 out of the 26 olfactory receptor candidates obtained by RNAseq was confirmed by qPCR; false RNAseq positive candidates, namely OR candidates for which in fact mRNA was not downregulated following acetophenone exposure
Description: as §1, §2, §3, §4, §5, §6

olfr1054 = system: olfr1054; design: species or system mouse; key: The transcript downregulation of 21 out of the 26 olfactory receptor candidates obtained by RNAseq was confirmed by qPCR; false RNAseq positive candidates, namely OR candidates for which in fact mRNA was not downregulated following acetophenone exposure
Description: as §1, §2, §3, §4, §5, §6

olfr922 = system: olfr922; design: species or system mouse; key: The transcript downregulation of 21 out of the 26 olfactory receptor candidates obtained by RNAseq was confirmed by qPCR; false RNAseq positive candidates, namely OR candidates for which in fact mRNA was not downregulated following acetophenone exposure
Description: as §1, §2, §3, §4, §5, §6

CC(=O)c1ccccc1 [acetophenone]
olfr143 candidate OR (RNAseq) confirmed by qPCR (olfr143): y | olfr490 candidate OR (RNAseq) confirmed by qPCR (olfr490): n | olfr478 candidate OR (RNAseq) confirmed by qPCR (olfr478): y | olfr145 candidate OR (RNAseq) confirmed by qPCR (olfr145): y | olfr19 candidate OR (RNAseq) confirmed by qPCR (olfr19): y | olfr476 candidate OR (RNAseq) confirmed by qPCR (olfr476): y | olfr30 candidate OR (RNAseq) confirmed by qPCR (olfr30): y | olfr935 candidate OR (RNAseq) confirmed by qPCR (olfr935): y | olfr47 candidate OR (RNAseq) confirmed by qPCR (olfr47): y | olfr1054 candidate OR (RNAseq) confirmed by qPCR (olfr1054): y | olfr922 candidate OR (RNAseq) confirmed by qPCR (olfr922): y
